Experimental data taken from patent US20230136702A1, “Inhibitors of Human Herpesviruses” (The Governors of the University of Alberta, priority 2020, published 2023).
Where two headings read alike, the source gives them in different places.

Assays:
[1] = tested on: HCMV US3-6-EGFP-HCMV-AD169 strain; experiment: In vitro inhibitory (antiviral) activity against HCMV, GFP reporter in MRC5 cells; assay type: cell-based, Human cytomegalovirus (HCMV); settings: Human betaherpesvirus 5, AD169, MRC5, 96 h, read-out: HCMV Antiviral EC50 range
Description: (§1) Exemplary compounds (e.g., as described herein) were prepared as 20 mM stock solutions with DMSO. Reference compound was ganciclovir (Sigma). Compounds were tested at 8 concentrations, 3-fold serial dilutions, in duplicate for EC50 and CC50 determinations. The highest testing concentrations of the exemplary compounds and reference compound were 40 μM and 100 μM, respectively. The final concentration of DMSO in the cell culture was 0.5%.
HCMV US3-6-EGFP-HCMV-AD169 strain was obtained from Institute Pasteur of Shanghai, CAS. The virus contains GFP as a reporter of the viral replication.
(§2) MRC5 cells (ATCC CCL-171) was obtained from the ATCC and maintained in the EMEM (Sigma) supplemented with 10% FBS (HyClone), 1% L-glutamine (Gibco), 1% NEAA (Gibco), and 1% PS (Hyclone). Reagent:
In 96-well plates, MRC5 cells were seeded at 20,000 cells per well and cultured at 37° C. and 5% C02 overnight. Next day, compounds (8 concentrations, 3-fold dilutions, in duplicate) and US3-6-EGFP-HCMV-AD169 (MOI=0.1) were added to the cells. The resulting cultures were incubated at 37° C. and 5% C02 for 4 days. Fluorescence intensity was determined by Acumen Cellista (TTP LabTech). The antiviral activity of each compound was calculated based on the inhibition of expression of GFP at each concentration normalized by the cell control (cells without virus infection or compound treatment).
(§3) Antiviral activity and cytotoxicity of the compounds were expressed as % Inhibition and % Viability, respectively, and calculated with the formulas below:
Inhibition (%)=100−(Raw dataCPD−AverageCC)/(AverageVC−AverageCC)*100
(§4) Raw dataCPD indicates the values of the compound-treated wells; AverageVC, AverageCC and AverageMC indicate the average values of the virus control (cells infected with virus, without compound treatment), cell control and medium control wells, respectively.
(§5) EC50 and CC50 values were calculated using the GraphPad Prism software.

hERG potassium channel = target: T1, hERG potassium channel (Homo sapiens, UniProt Q12809); experiment: Inhibition of hERG potassium channel, automated patch clamp (SyncroPatch 384PE) in CHO cells; assay type: cell-based
T1 construct: host or cells: CHO cells stably expressing hERG
T1 sequence (Q12809 whole entry): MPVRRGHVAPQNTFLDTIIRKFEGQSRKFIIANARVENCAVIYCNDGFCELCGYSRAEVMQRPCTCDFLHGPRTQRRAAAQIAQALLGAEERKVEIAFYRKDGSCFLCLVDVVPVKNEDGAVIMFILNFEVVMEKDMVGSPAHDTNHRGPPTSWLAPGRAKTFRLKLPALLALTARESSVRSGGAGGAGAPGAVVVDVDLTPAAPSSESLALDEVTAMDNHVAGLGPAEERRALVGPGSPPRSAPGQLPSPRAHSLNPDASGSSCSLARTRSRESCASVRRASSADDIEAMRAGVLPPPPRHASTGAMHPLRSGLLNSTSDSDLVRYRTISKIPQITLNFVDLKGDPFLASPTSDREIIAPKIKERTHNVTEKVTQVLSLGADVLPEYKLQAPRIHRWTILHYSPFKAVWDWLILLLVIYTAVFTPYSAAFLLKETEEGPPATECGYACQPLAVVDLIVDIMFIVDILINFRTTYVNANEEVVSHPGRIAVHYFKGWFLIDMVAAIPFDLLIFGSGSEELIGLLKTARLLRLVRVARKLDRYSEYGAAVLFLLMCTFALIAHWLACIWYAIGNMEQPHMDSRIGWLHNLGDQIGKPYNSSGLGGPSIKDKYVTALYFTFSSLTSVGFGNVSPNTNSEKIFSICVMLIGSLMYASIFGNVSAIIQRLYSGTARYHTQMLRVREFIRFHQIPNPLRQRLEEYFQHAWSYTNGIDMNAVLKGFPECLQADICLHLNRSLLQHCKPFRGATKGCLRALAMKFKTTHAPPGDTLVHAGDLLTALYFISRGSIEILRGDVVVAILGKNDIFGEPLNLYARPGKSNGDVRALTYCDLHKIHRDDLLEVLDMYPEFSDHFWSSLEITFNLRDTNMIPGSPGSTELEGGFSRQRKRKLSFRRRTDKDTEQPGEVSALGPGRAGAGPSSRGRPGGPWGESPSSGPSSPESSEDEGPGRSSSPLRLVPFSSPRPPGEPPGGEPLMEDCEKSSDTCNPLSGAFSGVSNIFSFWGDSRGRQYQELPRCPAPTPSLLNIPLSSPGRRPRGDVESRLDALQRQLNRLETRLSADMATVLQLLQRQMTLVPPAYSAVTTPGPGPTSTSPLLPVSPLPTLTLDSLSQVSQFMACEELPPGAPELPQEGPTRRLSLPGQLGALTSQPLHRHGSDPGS
Description: This automated patch clamp method (SyncroPatch 384PE) CHO cells stably expressing hERG potassium channels from Sophion Biosciences were used for this test.
The cells were cultured in a humidified and air-controlled (5% C02) incubator at 37° C.
The CHO cells which were at least two days after plating and more than 75% confluent would be used for experiments. Before testing, cells were harvested using TrypLE and resuspended in the physiological solution at the room temperature.
For the electrophysiological recordings the following solutions were used (Table 5). The physiological solution and external solution were prepared at least one month. The intracellular solution was prepared in batches aliquoted, and stored at 4° C. until used.
Exemplary compounds (e.g., as described herein) were dissolved in 100% DMSO to obtain stock solutions for different test concentrations. Then the stock solutions were further diluted into external solution to achieve final concentrations for testing. Visual check for precipitation was conducted before testing. Final DMSO concentration in external solution was not more than 0.30% for the compounds.
From this holding potential of −80 mV, the voltage was first stepped to −50 mV for 80 ms for leak subtraction, and then stepped to +20 mV for 4800 ms to open hERG channels. After that, the voltage was stepped back down to −50 mV for 5000 ms, causing a “rebound” or tail current, which was measured and collected for data analysis. Finally, the voltage was stepped back to the holding potential (−80 mV, 1000 ms). This voltage command protocol was repeated every 20000 msec. This command protocol was performed continuously during the test (vehicle control and test compound).
hERG SyncroPatch assay was conducted at room temperature. The Setup, Prime Chip, Catch and Seal Cells, Amplifier Settings, Voltage and Application Protocols were established with Biomek Software (Nanion).
One addition of 40 μL of the vehicle was applied, followed by 300s for a baseline period. Then the doses of exemplary test compounds were added with 40 μL. The exposure of test compound at each concentration was no less than 300s. […] Five concentrations (0.494 μM, 1.48 μM, 4.44 μM, 13.33 μM and 40.00 μM) were tested for each compound. Minimum 2 replicates per concentration were obtained.
Within each well recording, percent of control values were calculated for each test compound concentration current response based on peak current in presence of reference control (current response/peak current)×100%. The Dose-Response curves were fit to the standard Hill equation as shown below:
Ipost cpd/Ipre cpd=Bottom+(Top−Bottom)/(1+10^((Log IC50−X)*HillSlope))
Where X is the logarithm of concentration, Ipost cpd/Ipre cpd is the normalized peak current amplitude, Top is 1 and Bottom is equal to 0.
Curve-fitting and IC50 calculations were performed by GraphPad Prism 5.0. If the inhibition obtained at the lowest concentration tested was over 50%, or at the highest concentration tested was less than 50%, we reported the IC50 as less than lowest concentration, or higher than highest concentration, respectively.

[2] = target: T2, HCMV DNA polymerase (UL54) (Human cytomegalovirus, UniProt P08546); experiment: HCMV DNA polymerase enzyme inhibition assay (ProFoldin, fluorescence); assay type: biochemical; settings: 37° C., duplicate, max 40 μM
T2 construct: 6His (C); made in house; host or cells: Sf9 insect cells (baculovirus, pFastBac)
T2 sequence (P08546 whole entry): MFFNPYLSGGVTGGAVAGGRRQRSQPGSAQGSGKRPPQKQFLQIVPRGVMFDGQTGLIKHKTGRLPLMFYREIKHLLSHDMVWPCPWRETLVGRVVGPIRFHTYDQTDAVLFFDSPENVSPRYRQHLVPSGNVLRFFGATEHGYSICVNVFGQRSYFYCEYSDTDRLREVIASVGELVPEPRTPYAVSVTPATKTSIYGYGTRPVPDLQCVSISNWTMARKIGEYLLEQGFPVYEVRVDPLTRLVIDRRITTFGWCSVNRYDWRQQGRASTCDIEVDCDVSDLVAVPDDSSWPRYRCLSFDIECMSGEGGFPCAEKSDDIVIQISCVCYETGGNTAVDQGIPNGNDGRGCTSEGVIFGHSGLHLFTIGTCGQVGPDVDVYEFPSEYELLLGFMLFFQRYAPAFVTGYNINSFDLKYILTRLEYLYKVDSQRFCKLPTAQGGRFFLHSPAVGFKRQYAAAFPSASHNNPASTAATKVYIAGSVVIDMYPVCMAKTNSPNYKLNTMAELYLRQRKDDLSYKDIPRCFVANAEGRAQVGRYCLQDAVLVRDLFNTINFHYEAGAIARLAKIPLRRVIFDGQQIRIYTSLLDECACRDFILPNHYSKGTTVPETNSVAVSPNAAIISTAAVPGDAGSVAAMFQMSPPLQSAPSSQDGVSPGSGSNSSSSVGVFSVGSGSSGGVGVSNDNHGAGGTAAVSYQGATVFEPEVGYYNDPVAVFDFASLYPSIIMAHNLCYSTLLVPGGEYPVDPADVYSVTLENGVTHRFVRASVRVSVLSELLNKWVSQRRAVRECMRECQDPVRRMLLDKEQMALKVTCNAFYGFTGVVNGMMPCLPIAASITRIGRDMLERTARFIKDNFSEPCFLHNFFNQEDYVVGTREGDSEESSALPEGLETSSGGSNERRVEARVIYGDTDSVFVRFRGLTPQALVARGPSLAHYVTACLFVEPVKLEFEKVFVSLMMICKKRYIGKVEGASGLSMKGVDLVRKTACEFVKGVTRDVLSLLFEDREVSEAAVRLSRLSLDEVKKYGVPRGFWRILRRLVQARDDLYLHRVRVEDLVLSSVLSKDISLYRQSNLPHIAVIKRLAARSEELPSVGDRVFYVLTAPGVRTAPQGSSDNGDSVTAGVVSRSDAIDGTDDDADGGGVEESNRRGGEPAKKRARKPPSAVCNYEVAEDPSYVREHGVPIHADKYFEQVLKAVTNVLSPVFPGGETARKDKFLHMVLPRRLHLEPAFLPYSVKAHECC
Description: The HCMV DNA polymerase assay was developed by ProFoldin. The assay detects the formation of DNA from the DNA polymerase reaction in the presence of a DNA template, dATP and dGTP. The formation of the DNA is detected by using a fluorescence method. The fluorescence intensity increases when DNA is generated by the enzyme reaction.
A time-course experiment was performed aside the enzyme inhibition assay to ensure the assay was sensitive to the enzyme inhibition. The wells for the time-course experiment contained 1 μL of DMSO and the same reaction mixture as that in the enzyme inhibition assay. The time-course data varied between plates. The reactions were stopped when the fluorescence reached a value of about 3700 for each plate.
Exemplary solid compounds (e.g., as described herein) were dissolved in DMSO to make […] stock solutions. PFA (phosphonoformic acid or phosphonomethanoic acid) was used as a positive control. The compound mother plates were prepared at 50× concentrated compound concentrations with a 2-fold serial dilution. All the exemplary compounds except PFA were diluted in DMSO. PFA was diluted in water. The maximum compound concentration was 2 mM that gave the final concentration of 40 μM in the assay. One microliter of the 50× stock solutions was transferred into the assay plates. Three copies of assay plates were prepared, two for HCMV DNA polymerase assay and one for compound background control.
The following is the protocol for enzyme inhibition performed at 37° C.:
1. Prepared a premix composed of 35347 μL of H2O, 5220 μL of 10× assay buffer and 149 μL of 350×HCMV DNA polymerase.
2. Added 39 μL of the premix into the wells with 1 μL of the compound. Incubated the mixture for at least 5 min.
3. Added 10 μL of 5×dNTP (0.1 mM), 5×DNA template solutions into each well and incubated the solution until the fluorescence value reached a value about 3700 for the DMSO-only control wells.
4. Added 50 μL of the 1× dye into the wells.
5. Read the fluorescence at emission wavelength of 535 nm and excitation wavelength of 485 nm.
For the compound background reading, added 99 μL of water in the wells with 1 μL of compounds and read the fluorescence. […] The 0% inhibition value F0 was from the wells with DMSO (no inhibitor).
The background values were subtracted from the fluorescence reading to get the net fluorescence values. The net fluorescence values were used for calculation of the percentage inhibition.
The assay was performed in duplicate for the test article at […], 1.25, 0.625, 0.313, 0.156 and 0.078 μM. The IC50 curves were obtained by fitting the percentage inhibition values with the compound concentrations using Prism GraphPad software.

[3] = Cytotoxicity in MRC5 cells without virus infection (CCK8); assay type: cell-based; settings: human
Description: as §1, §2
Cytotoxicity of the compounds was assessed under the same conditions, but without virus infection, in parallel. Cell viability was measured with CCK8 following the manufacturer's manual. CC50 values were then calculated based on cytotoxicity at the test concentrations normalized by the medium control (medium only).
as §3
Viability (%)=(Raw dataCPD−AverageMC)/(AverageCC−AverageMC)*100
as §4, §5

[4] = CHO cells stably expressing hERG, room temperature, 0.494-40.00 μM, read-out: CHO-hERG Activity Range

Row | SMILES | EC50 [1] | IC50 (hERG potassium channel; [4]) | IC50 [2] | CC50 at 4 days [3] | IC50 (hERG potassium channel)
1 | CC1(F)CN(C(=O)Cn2c(=O)c(C(=O)NCc3ccc(Cl)cc3)cc3nc(N4CCN(CC(=O)O)C4=O)cnc32)C1 [Compound 13, [3-(7-{[(4-chlorophenyl)methyl]carbamoyl}-5-[2-(3-fluoro-3-methylazetidin-1-yl)-2-oxoethyl]-6-oxo-5,6-dihydropyrido[2,3-b]pyrazin-2-yl)-2-oxoimidazolidin-1-yl]acetic acid] | > 1 µM | > 10 µM | < 1 µM | > 40 µM | –
2 | CN1C(=O)CN(c2cnc3c(cc(C(=O)NCc4ccc(Cl)cc4)c(=O)n3CC(=O)N3CC(C)(F)C3)n2)C1=O [Compound 14, N-[(4-chlorophenyl)methyl]-5-[2-(3-fluoro-3-methylazetidin-1-yl)-2-oxoethyl]-2-(3-methyl-2,4-dioxoimidazolidin-1-yl)-6-oxo-5,6-dihydropyrido[2,3-b]pyrazine-7-carboxamide] | > 1 µM | > 10 µM | < 1 µM | > 40 µM | –
3 | CN1C(=O)CN(c2cnc3c(cc(C(=O)NCc4ccc(Cl)cc4)c(=O)n3CC(=O)N3CC4(CC4)C3)n2)C1=O [Compound 15, 5-[2-(5-azaspiro[2.3]hexan-5-yl)-2-oxoethyl]-N-[(4-chlorophenyl)methyl]-2-(3-methyl-2,4-dioxoimidazolidin-1-yl)-6-oxo-5,6-dihydropyrido[2,3-b]pyrazine-7-carboxamide] | < 1 µM | – | < 1 µM | > 40 µM | < 10 µM
4 | CC1(F)CN(C(=O)Cn2c(=O)c(C(=O)NCc3ccc(Cl)cc3)cc3nc(N4CCN(CCNS(C)(=O)=O)C4=O)cnc32)C1 [Compound 16, N-[(4-chlorophenyl)methyl]-5-[2-(3-fluoro-3-methylazetidin-1-yl)-2-oxoethyl]-2-(3-{2-[(methanesulfonyl)amino]ethyl}-2-oxoimidazolidin-1-yl)-6-oxo-5,6-dihydropyrido[2,3-b]pyrazine-7-carboxamide] | > 1 µM | > 10 µM | < 1 µM | > 40 µM | –
5 | CC(=O)NCCN1CCN(c2cnc3c(cc(C(=O)NCc4ccc(Cl)cc4)c(=O)n3CC(=O)N3CC(C)(F)C3)n2)C1=O [Compound 19] | > 1 µM | > 10 µM | < 1 µM | > 40 µM | –
6 | CN(C)C(=O)CN1CCN(c2cnc3c(cc(C(=O)NCc4ccc(Cl)cc4)c(=O)n3CC(=O)N3CC(C)(F)C3)n2)C1=O [Compound 21] | < 1 µM | > 10 µM | < 1 µM | > 40 µM | –
7 | CC(=O)N(C)CCN1CCN(c2cnc3c(cc(C(=O)NCc4ccc(Cl)cc4)c(=O)n3CC(=O)N3CC(C)(F)C3)n2)C1=O [Compound 22, 2-(3-{2-[acetyl(methyl)amino]ethyl}-2-oxoimidazolidin-1-yl)-N-[(4-chlorophenyl)methyl]-5-[2-(3-fluoro-3-methylazetidin-1-yl)-2-oxoethyl]-6-oxo-5,6-dihydropyrido[2,3-b]pyrazine-7-carboxamide] | > 1 µM | > 10 µM | < 1 µM | > 40 µM | –
8 | CC1(F)CN(C(=O)Cn2c(=O)c(C(=O)NCc3ccc(Cl)cc3)cc3nc(N4CCN(CC(=O)NC#N)C4=O)cnc32)C1 [Compound 26, N-[(4-chlorophenyl)methyl]-2-{3-[2-(cyanoamino)-2-oxoethyl]-2-oxoimidazolidin-1-yl}-5-[2-(3-fluoro-3-methylazetidin-1-yl)-2-oxoethyl]-6-oxo-5,6-dihydropyrido[2,3-b]pyrazine-7-carboxamide] | > 1 µM | > 10 µM | < 1 µM | > 40 µM | –
9 | CC1(F)CN(C(=O)Cn2c(=O)c(C(=O)NCc3ccc(Cl)cc3)cc3nc(N4CCN(Cc5nnn[nH]5)C4=O)cnc32)C1 [Compound 27, N-[(4-chlorophenyl)methyl]-5-[2-(3-fluoro-3-methylazetidin-1-yl)-2-oxoethyl]-6-oxo-2-{2-oxo-3-[(1H-tetrazol-5-yl)methyl]imidazolidin-1-yl}-5,6-dihydropyrido[2,3-b]pyrazine-7-carboxamide] | > 1 µM | > 10 µM | < 1 µM | > 40 µM | –
10 | CC1(F)CN(C(=O)Cn2c(=O)c(C(=O)NCc3ccc(Cl)cc3)cc3nc(N4CCN(CC(=O)N5CCC5)C4=O)cnc32)C1 [Compound 28, 2-{3-[2-(azetidin-1-yl)-2-oxoethyl]-2-oxoimidazolidin-1-yl}-N-[(4-chlorophenyl)methyl]-5-[2-(3-fluoro-3-methylazetidin-1-yl)-2-oxoethyl]-6-oxo-5,6-dihydropyrido[2,3-b]pyrazine-7-carboxamide] | < 1 µM | > 10 µM | < 1 µM | > 40 µM | –
